Legend:
Carbonic anhydrase 3 = Carbonic anhydrase 3 (Homo sapiens, UniProt P07451)
Carbonic anhydrase 9 = Carbonic anhydrase 9 (Homo sapiens, UniProt Q16790)
Carbonic anhydrase 2 = Carbonic anhydrase 2 (Homo sapiens, UniProt P00918)
Carbonic anhydrase 4 = Carbonic anhydrase 4 (Homo sapiens, UniProt P22748)
[1] = biological target: Carbonic anhydrase 5A, mitochondrial (Homo sapiens, UniProt P35218)
[2] = biological target: Carbonic anhydrase 5B, mitochondrial (Homo sapiens, UniProt Q9Y2D0)
Carbonic anhydrase 6 = Carbonic anhydrase 6 (Homo sapiens, UniProt P23280)
Carbonic anhydrase 6, sequence (P23280 whole entry): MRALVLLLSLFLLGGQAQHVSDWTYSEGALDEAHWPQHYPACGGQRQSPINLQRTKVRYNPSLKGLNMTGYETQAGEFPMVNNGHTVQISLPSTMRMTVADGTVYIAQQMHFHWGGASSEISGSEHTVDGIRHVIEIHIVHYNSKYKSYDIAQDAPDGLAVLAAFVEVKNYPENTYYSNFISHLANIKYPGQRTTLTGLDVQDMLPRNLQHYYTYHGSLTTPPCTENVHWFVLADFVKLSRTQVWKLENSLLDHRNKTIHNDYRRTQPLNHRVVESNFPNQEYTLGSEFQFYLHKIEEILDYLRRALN

Carbonic anhydrase 7 = Carbonic anhydrase 7 (Homo sapiens, UniProt P43166)
Carbonic anhydrase 7, sequence (P43166 whole entry): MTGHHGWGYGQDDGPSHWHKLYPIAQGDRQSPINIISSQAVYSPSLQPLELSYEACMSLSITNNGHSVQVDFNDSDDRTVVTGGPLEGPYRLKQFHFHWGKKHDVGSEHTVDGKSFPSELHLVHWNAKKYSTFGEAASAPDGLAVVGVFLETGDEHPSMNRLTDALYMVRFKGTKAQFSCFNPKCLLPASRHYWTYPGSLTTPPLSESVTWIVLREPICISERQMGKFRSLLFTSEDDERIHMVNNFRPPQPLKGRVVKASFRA

Carbonic anhydrase 13 = Carbonic anhydrase 13 (Mus musculus, UniProt Q9D6N1)
Carbonic anhydrase 13, sequence (Q9D6N1 whole entry): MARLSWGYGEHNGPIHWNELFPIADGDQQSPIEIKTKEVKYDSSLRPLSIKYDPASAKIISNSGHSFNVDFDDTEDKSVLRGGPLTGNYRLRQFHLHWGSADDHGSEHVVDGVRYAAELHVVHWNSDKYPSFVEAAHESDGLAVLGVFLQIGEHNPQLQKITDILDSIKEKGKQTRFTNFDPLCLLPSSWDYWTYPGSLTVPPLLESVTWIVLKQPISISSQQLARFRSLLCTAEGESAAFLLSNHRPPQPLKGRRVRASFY

Carbonic anhydrase 14 = Carbonic anhydrase 14 (Homo sapiens, UniProt Q9ULX7)
Carbonic anhydrase 14, sequence (Q9ULX7 whole entry): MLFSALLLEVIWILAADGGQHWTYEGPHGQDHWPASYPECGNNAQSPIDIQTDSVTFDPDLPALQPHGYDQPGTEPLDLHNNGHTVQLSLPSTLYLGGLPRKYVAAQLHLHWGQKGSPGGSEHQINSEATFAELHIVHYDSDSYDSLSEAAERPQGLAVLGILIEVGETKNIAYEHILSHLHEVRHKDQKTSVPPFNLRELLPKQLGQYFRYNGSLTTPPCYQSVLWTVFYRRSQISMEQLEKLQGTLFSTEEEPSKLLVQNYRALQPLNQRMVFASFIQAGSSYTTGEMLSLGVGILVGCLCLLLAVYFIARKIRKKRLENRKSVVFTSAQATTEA

Carbonic anhydrase 3, sequence (P07451 whole entry): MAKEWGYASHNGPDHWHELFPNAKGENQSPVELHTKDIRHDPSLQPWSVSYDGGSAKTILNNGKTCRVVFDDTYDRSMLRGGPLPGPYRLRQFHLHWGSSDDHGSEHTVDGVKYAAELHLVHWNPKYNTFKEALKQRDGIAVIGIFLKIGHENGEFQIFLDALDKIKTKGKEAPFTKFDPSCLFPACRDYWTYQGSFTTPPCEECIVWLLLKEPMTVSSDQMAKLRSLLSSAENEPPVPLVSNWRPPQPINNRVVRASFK
Carbonic anhydrase 4, sequence (P22748 whole entry): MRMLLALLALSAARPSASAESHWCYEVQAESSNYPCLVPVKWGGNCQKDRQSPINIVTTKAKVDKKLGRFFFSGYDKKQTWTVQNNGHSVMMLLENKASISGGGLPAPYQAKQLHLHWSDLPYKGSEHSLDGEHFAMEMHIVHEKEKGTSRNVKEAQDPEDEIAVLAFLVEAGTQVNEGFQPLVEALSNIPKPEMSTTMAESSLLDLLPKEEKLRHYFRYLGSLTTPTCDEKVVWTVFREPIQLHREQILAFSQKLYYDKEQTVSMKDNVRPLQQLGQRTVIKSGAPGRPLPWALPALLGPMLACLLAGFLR
Carbonic anhydrase 5B, mitochondrial, sequence (Q9Y2D0 whole entry): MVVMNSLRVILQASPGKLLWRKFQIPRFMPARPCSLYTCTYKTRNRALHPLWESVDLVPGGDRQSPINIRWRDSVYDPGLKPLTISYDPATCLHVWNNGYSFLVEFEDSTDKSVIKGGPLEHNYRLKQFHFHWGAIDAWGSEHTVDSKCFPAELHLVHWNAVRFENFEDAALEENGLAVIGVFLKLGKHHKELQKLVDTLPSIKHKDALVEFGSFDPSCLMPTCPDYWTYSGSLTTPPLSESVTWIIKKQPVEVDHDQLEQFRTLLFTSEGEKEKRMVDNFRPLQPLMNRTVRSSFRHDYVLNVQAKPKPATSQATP
Carbonic anhydrase 5A, mitochondrial, sequence (P35218 whole entry): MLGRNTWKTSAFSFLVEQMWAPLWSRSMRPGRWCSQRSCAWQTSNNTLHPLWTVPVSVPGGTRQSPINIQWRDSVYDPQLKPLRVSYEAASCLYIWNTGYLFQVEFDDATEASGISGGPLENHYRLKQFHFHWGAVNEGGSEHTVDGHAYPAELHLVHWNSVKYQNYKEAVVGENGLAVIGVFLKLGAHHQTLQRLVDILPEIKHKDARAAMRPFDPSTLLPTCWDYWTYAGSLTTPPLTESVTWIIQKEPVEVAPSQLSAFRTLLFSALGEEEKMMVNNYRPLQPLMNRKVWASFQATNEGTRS

Row | SMILES | Ki (Carbonic anhydrase 3) | Ki (Carbonic anhydrase 9) | Ki (Carbonic anhydrase 2) | Ki (Carbonic anhydrase 4) | Ki [1] | Ki [2] | Ki (Carbonic anhydrase 6) | Ki (Carbonic anhydrase 7) | Ki (Carbonic anhydrase 13) | Ki (Carbonic anhydrase 14)
1 | CC1Cc2ccccc2N1NC(=O)c1ccc(Cl)c(S(N)(=O)=O)c1 (configuration not stated) [INDAPAMIDE] | 230 µM |  |  |  |  |  |  |  |  | 
2 | NS(=O)(=O)c1cc(C2(O)NC(=O)c3ccccc32)ccc1Cl (configuration not stated) [CHLORTHALIDONE] | 11 µM | 0.023 µM | 0.138 µM | 0.196 µM | 0.917 µM | 0.009 µM | 1.35 µM | 0.0028 µM | 0.015 µM | 4.13 µM
3 | NS(=O)(=O)c1cc(C(=O)O)c(NCc2ccco2)cc1Cl [FUROSEMIDE] | 3200 µM |  |  |  |  |  |  |  |  | 

Reference: ChEMBL document CHEMBL1143325 (Bioorg Med Chem, 2009)
